The text below walks through data of patent US20160045513A1, “ISOXAZOLE COMPOUND FOR THE TREATMENT OF CANCER” (Novartis AG, priority 2007, published 2016).

The test system of one experiment is CA20948 xenograft. The experiment is described as follows: antitumor effect in the rat pancreatic cancer model CA20948. It counts as in vivo. Conditions: for T/C (%) / ΔTumor volume (mm^3): qw; for ΔTumor volume (mm^3): mean ±SEM, *P < 0.05. As for the experimental part: The transplantable rat pancreatic tumor CA20948 is serially passaged as cell homogenates in male syngeneic Lewis rats. The injection site is subcutaneously on the right flank. […] Tumor growth is monitored at regular intervals. The xenograft tumor sizes is measured manually with calipers and the tumor volume is estimated using the formula: (W×L^2×π/6), where width (W) and height (H) are the two largest diameters. Results are presented as mean ±SEM. Tumor data were analyzed by ANOVA with post hoc Dunnet's test for comparison of treatment versus control group. As a measure of efficacy the % T/C value is calculated at the end of the experiment according to: (Δtumor volumetreated/Δtumor volumecontrol)*100 where Δtumor volumes represent the mean tumor volume on the evaluation day minus the mean tumor volume at the start of the experiment. The antitumor effect of AUY922 is evaluated in the CA20948 xenograft model. Each group consisted of six tumor bearing animals. At the end of the study, the tumor sizes in the treatment groups are compared to those of the vehicle treated groups and the effect is expressed as % T/C.

A further experiment has as its system CXF 1784. The experiment is described as follows: clonogenic assay, human tumor xenografts in vitro. In kind it is cell-based. Conditions: Colon, CXF 1784, Carcinoma, soft agar, read-out: IC50 (nM), colony formation. As for the experimental part: (§1) The anticancer activity of 5-(2,4-Dihydroxy-5-isopropyl-phenyl)-4-(4-morpholin-4-ylmethyl-phenyl)-isoxazole-3-carboxylic acid ethylamide is evaluated in 30 human tumor xenografts in vitro using a clonogenic assay. In this assay, human cells derived from cancer patients are evaluated for the capacity of 5-(2,4-Dihydroxy-5-isopropyl-phenyl)-4-(4-morpholin-4-ylmethyl-phenyl)-isoxazole-3-carboxylic acid ethylamide to inhibit the formation of 3 dimensional colonies. […] The tumor xenografts which have never been cultured in cell culture plastic dishes are isolated from nude mice. Tumor cell suspensions are prepared and incubated in 24 well plates containing layers of soft agar. Under these conditions a special subpopulation of cells selectively grows to colonies. 5-(2,4-Dihydroxy-5-isopropyl-phenyl)-4-(4-morpholin-4-ylmethyl-phenyl)-isoxazole-3-carboxylic acid ethylamide was tested in 6 concentrations up to […]. The tumor test panel comprises 1 to 6 models of 10 different human tumor or cancer types, which were bladder cancer, colon, liver, non small cell lung (adeno, squamous epithelium and large cell), small cell lung, mammary, ovary, pancreatic, melanoma and pleuramesothelioma. Antitumor effects are recorded as inhibition of colony formation in relation to untreated controls. Further information on the method has been published (Burger et al., 2004; Fiebig et al., 2004; Smith et al., 2005).
(§2) The cells are continually exposed to 5-(2,4-Dihydroxy-5-isopropyl-phenyl)-4-(4-morpholin-4-ylmethyl-phenyl)-isoxazole-3-carboxylic acid ethylamide and colony formation is determined.

The test system of the next experiment is LIXF 575. The experiment can be described thus: clonogenic assay, human tumor xenografts in vitro. In kind it is cell-based. Conditions: Liver, LIXF 575, Hepatocellular carcinoma, soft agar, read-out: IC50 (nM), colony formation. As for the experimental part:
as §1, §2

A further experiment deals with CXF 1729. The experiment is described as follows: clonogenic assay, human tumor xenografts in vitro. It counts as cell-based. Conditions: Colon, CXF 1729, Carcinoma, soft agar, read-out: IC50 (nM), colony formation. As for the experimental part:
as §1, §2

For another experiment, the system named is MAXF 401. The experiment is described as follows: clonogenic assay, human tumor xenografts in vitro. It counts as cell-based. Conditions: MAXF401, Breast, MAXF 401, Pap. adeno carcinoma, soft agar, read-out: IC50 (nM), colony formation. As for the experimental part:
as §1, §2

A further experiment concerns BXF 1228. The experiment can be described thus: clonogenic assay, human tumor xenografts in vitro. In kind it is cell-based. Conditions: Bladder, BXF 1228, Transitional cell carcinoma, soft agar, read-out: IC50 (nM), colony formation. The procedure: as §1, §2
A further experiment concerns MEXF 989. The experiment can be described thus: clonogenic assay, human tumor xenografts in vitro. In kind it is cell-based. Conditions: Melanoma, MEXF 989, Amelanotic melanoma, soft agar, read-out: IC50 (nM), colony formation. The procedure: as §1, §2
The test system of a further experiment is MEXF 672. The experiment is described as follows: clonogenic assay, human tumor xenografts in vitro. In kind it is cell-based. Conditions: Melanoma, MEXF 672, Amelanotic melanoma, soft agar, read-out: IC50 (nM), colony formation. As for the experimental part:
as §1, §2

The next experiment has as its system LXFS 615. The experiment is described as follows: clonogenic assay, human tumor xenografts in vitro. In kind it is cell-based. Conditions: Lung, small cell, LXFS 615, Small cell lung carcinoma, soft agar, read-out: IC50 (nM), colony formation. As for the experimental part:
as §1, §2

The next experiment relates to MAXF 1322. The experiment can be described thus: clonogenic assay, human tumor xenografts in vitro. It counts as cell-based. Conditions: Breast, MAXF 1322, Pap. adeno carcinoma, soft agar, read-out: IC50 (nM), colony formation. The procedure: as §1, §2
Another experiment deals with BT-474 xenograft. The experiment can be described thus: antitumor effect in the human breast cancer model BT-474. In kind it is in vivo, mouse. Conditions: for T/C (%) / ΔTumor volume (mm^3): qw, i.v., 21 days treatment; for ΔTumor volume (mm^3): mean ±SEM. As for the experimental part:
The estrogen receptor positive cell line BT-474 was initially isolated from a human breast ductal carcinoma established from a solid, invasive ductal carcinoma of the breast obtained from a person (ATCC number HTB-20). The cells are grown in DMEM high glucose (4.5 g/l) supplemented with 10% FCS, […] and 1% sodium pyruvate. In preparation for cell inoculation, each mouse is subcutaneously implanted on the upper dorsal side with a 17β-Estradiol pellet (25 μg/day; 90 day release) using a trocar needle. BT-474 cells (5×10̂6) are injected in 200 μl Matrigel:HBSS (1:1 vol) (BD MatrigelTM Basement Membrane Matrix). The injection site is subcutaneously in the right flank. […] Tumor growth is monitored at regular intervals. The xenograft tumor sizes are measured manually with calipers and the tumor volume is estimated using the formula: (W×L×H×π/6), where width (W), height (H) and length (L) are the three largest diameters. Results are presented as mean ±SEM. Tumor data are analyzed by ANOVA with post hoc Dunnet's test for comparison of treatment versus control group. As a measure of efficacy the % T/C value is calculated at the end of the experiment according to: (Δtumor volumetreated/Δtumor volumecontrol)*100 where Δtumor volumes represent the mean tumor volume on the evaluation day minus the mean tumor volume at the start of the experiment. The antitumor effect of AUY922 is evaluated in the BT-474 xenograft model. In this study, the treatment period is 21 days. Each group consists of eight tumor bearing animals. At the end of the study, the tumor sizes in the treatment groups are compared to those of the vehicle treated groups and the effect is expressed as % T/C.

For the compound `CCNC(=O)c1noc(-c2cc(C(C)C)c(O)cc2O)c1-c1ccc(CN2CCOCC2)cc1` [AUY922, 5-(2,4-Dihydroxy-5-isopropyl-phenyl)-4-(4-morpholin-4-ylmethyl-phenyl)-isoxazole-3-carboxylic acid ethylamide], the “T/C (%)” value in the experiment with CA20948 xenograft (50 mg/kg, i.v.) stood at 30%; in the experiment on CA20948 xenograft (75 mg/kg, i.v), 21%; with BT-474 xenograft (8.3 mg/kg), 43%; in the experiment with BT-474 xenograft (17 mg/kg), 9%; in the experiment on BT-474 xenograft (25 mg/kg), 3%. Also, the “ΔTumor volume (mm^3)” value in the experiment on CA20948 xenograft (50 mg/kg, i.v.) is on record as 7090 ± 2553* mm^3; in the experiment with CA20948 xenograft (75 mg/kg, i.v) it was 4796 ± 1354* mm^3; in the experiment with BT-474 xenograft (8.3 mg/kg), 229 ± 73 mm^3; in the experiment on BT-474 xenograft (17 mg/kg, *P < 0.05) it was 46 ± 27* mm^3; in the experiment with BT-474 xenograft (25 mg/kg, *P < 0.05) it was 15 ± 23* mm^3. The “reduction of tumor sizes versus vehicle” value is “Statistically significant reduction of tumor sizes” with CA20948 xenograft (once per week at 50 and 75 mg/kg); “Statistically significant reduction of tumor sizes” in the experiment on BT-474 xenograft (once per week at 17-25 mg/kg). For the same compound, the IC50 in the experiment on CXF 1784 worked out at 418 nM; with LIXF 575 it was 34 nM; in the experiment with CXF 1729 it was 467 nM; in the experiment with MAXF 401 it was 78 nM; with BXF 1228, 630 nM; in the experiment with MEXF 989, 2 nM. The IC50 with MEXF 672 worked out at 18 nM; in the experiment with LXFS 615, 30 nM; in the experiment with MAXF 1322, 29 nM.
